{
  "source": "patent US5183736A",
  "about": "“Methods using estrogen receptor as a constitutive transcriptional activator and a repressor” (La Jolla Cancer Research Foundation, priority 1990, dated 1993)",
  "key": {"[1]": {"tested_on": "ERval", "assay": "gel retardation assay, ERval binding to 32P-labelled ERE", "design": "species or system human", "conditions": "for effect on binding of ERval to the ERE: high concentrations, FIG. 2b", "procedure": "(§1) (a) DNA binding of ER and ER mutants. […] As control, the labelled ERE (lane 1) and the lysate (lane 2) were run alone. Binding of receptors to labelled ERE was competed with 50 fold excess of unlabelled ERE(S) or nonspecific unlabelled oligonucleotides (N).\n(§2) To investigate the ER protein-DNA interaction gel retardation assays were performed^5,13. Receptor proteins were synthesized by in vitro transcription/translation^5,7, incubated with ^32 P-labelled ERE, and run on a non-denaturing acrylamide gel (FIG. 2a). The assay was performed as follows. ER and ERval cDNA cloned in Bluescript (Stratagene) were transcribed using T7 or T3 RNA polymerase, and translated, using rabbit reticulocyte translation system (Promega) as described^5. 5 μl of in vitro translated receptor protein were incubated with ^32 P labeled ERE fragment in a reaction mixture containing 20 mM Hepes buffer pH 7.9, 50 mM KCl, 1 mM DTT, 2.5 mM MgCl2, 10% glycerol, and 1 μg poly (dI-dC) at 25° C. for 20 min. Reaction mixtures were loaded on a 5% non-denaturing polyacrylamide gel containing 10 mM HEPES pH 7.9 and 3.3 mM sodium acetate pH 7.9, and electrophoresed. Gels were run at 4° C., 140 V for 3 h with continued circulation of buffer."}, "[2]": {"tested_on": "TRα-ERval hybrid receptor", "conditions": "10^-8 M E2, FIG. 4c", "procedure": "as §2"}, "[3]": {"tested_on": "ERdel", "conditions": "10^-8 M E2, FIG. 2a", "procedure": "as §1, §2"}, "[4]": {"tested_on": "mutant estrogen receptor ERval (VAL at position 400)", "assay": "transient cotransfection ERE-CAT reporter assay in CV-1 cells, ERval", "assay_type": "cell-based, human", "procedure": "(§3) (a) Induction of CAT activity. CV-1 cells were transiently cotransfected with 2 μg of ERE-CAT reporter plasmid alone (control) or together with 1 μg of receptor expression vector and 3 μg of β-gal expression vector (pCH110, Pharmacia) which served as an internal control. Carrier DNA (Bluescript) was added to 23 μg total DNA. […] CAT activity is corrected for β-gal activity.\n(§4) CV-1 cells were cotransfected as described under (a) using ER (c) or ERval (d) expression vectors and reporter plasmid.\n(§5) CV-1 cells were transiently cotransfected with ER or ERval expression vectors and reporter plasmid as described in FIG. 1. […] CAT enzyme activities presented are corrected for transfection efficiency by measuring β-gal expression.\nTo investigate the transcriptional regulatory properties of the human estrogen receptor, transient cotransfection experiments were carried out in which CV-1 cells were transfected with an estrogen receptor (ER) expression vector and an estrogen responsive CAT (chloramphenicol acetyl-transferase) reporter gene. We investigated the \"wild type\" receptor^9 that carries a GLY at position 400 (ER) and a mutant receptor that contains a VAL at position 400 (ERval). This mutant receptor was cloned from a human mammary carcinoma cell line cDNA library and was originally thought to represent the wild type hER^10,11. […]"}, "[5]": {"tested_on": "ERval", "assay": "repressor assay: ERval cotransfected with ER-TRα and ERE-CAT in CV-1 cells", "assay_type": "cell-based, human", "conditions": "10^-8 M OH-Tam, 10^-7 M T3, FIG. 5", "procedure": "CAT activities were measured as described in the Example. A representative experiment is shown.\nThe transient transfection was performed as follows."}, "[6]": {"target": "human estrogen receptor (ER, wild type, GLY at position 400) (Homo sapiens, UniProt P03372)", "sequence (P03372 whole entry)": "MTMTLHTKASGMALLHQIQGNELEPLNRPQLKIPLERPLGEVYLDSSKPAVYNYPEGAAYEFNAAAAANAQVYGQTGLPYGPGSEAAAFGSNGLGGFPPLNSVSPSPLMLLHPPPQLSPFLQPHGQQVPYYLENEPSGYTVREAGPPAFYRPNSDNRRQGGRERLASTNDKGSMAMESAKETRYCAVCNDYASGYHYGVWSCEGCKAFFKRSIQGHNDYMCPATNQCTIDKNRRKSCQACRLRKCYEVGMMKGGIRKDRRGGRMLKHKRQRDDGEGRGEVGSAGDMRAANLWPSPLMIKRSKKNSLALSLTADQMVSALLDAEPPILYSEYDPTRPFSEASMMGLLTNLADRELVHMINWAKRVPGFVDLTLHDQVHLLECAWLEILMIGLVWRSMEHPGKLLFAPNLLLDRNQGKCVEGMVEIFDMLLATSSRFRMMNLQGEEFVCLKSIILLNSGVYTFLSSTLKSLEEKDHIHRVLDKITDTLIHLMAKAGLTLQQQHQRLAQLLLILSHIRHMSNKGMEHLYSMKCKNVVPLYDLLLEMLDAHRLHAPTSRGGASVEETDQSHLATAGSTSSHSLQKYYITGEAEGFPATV", "procedure": "as §3\nCV-1 cells were cotransfected with 2 μg ERE reporter plasmid alone (control) and with decreasing amounts of ER expression vector as indicated. […] A representative experiment is shown.\nas §4, §5\nCV-1 cells were cotransfected as described above. […] CAT activities were measured as described.\nTo investigate the transcriptional regulatory properties of the human estrogen receptor, transient cotransfection experiments were carried out in which CV-1 cells were transfected with an estrogen receptor (ER) expression vector and an estrogen responsive CAT (chloramphenicol acetyl-transferase) reporter gene. We investigated the \"wild type\" receptor^9 that carries a GLY at position 400 (ER) and a mutant receptor that contains a VAL at position 400 (ERval). This mutant receptor was cloned from a human mammary carcinoma cell line cDNA library and was originally thought to represent the wild type hER^10,11. In addition we investigated another mutant receptor that we obtained by deleting the coding sequences for amino acids 442-498 (ERdel) of the hormone binding domain. The estrogen response element (ERE) we use here is a palindromic sequence ([…]) that is derived from the vitellogenin gene promoter^12.\n(§6) The transient transfection was performed as follows. […] After 24 h cultures were washed with PBS and new medium was added. A modified calcium phosphate precipitation procedure was used for transient transfection^20. 18 h after transfections, cultures were washed twice with PBS, and fresh medium was added together with the desired amount of hormone. After 24 h. cells were collected and cell extract was prepared. β-gal assay was performed as described^21. CAT activity was assayed by using ^3 H-acetylated chloramphenicol and a mixed-phase scintillation measurement, as described in reference 22, below. CPM corrected for β-gal activity represents relative CAT activity. ERE-CAT was constructed by inserting the above synthetic ERE-oligonucleotide with BglII linkers into the BamH1 site of pBLCAT2^23."}, "[7]": {"tested_on": "ER-ERE complex", "assay": "dissociation of the ER-ERE complex (gel retardation)", "assay_type": "binding, human", "conditions": "10^-8 M ligand, 50 fold excess unlabelled ERE, 10° C., FIG. 6", "procedure": "At time 0, a 50 fold excess of non-labelled ERE was added. After incubation at 10° C. for the indicated time intervals, aliquots were loaded on a running non-denaturing 5% polyacrylamide gel.\nThe assay was performed as follows.\nTo measure the stability of the ER-ERE complexes in the presence and absence of ligands, the dissociation of the complexes was analyzed (FIG. 6)."}, "[8]": {"target": "ER (Homo sapiens, UniProt P03372)", "sequence (P03372 whole entry)": "as above", "conditions": "10^-8 M OH-Tam, 10^-7 M T3, FIG. 5", "procedure": "(§7) A representative experiment is shown.\nas §6"}, "[9]": {"tested_on": "ER-TRα hybrid receptor", "assay": "ERE-CAT activation by hybrid receptor ER-TRα alone in CV-1 cells", "assay_type": "cell-based, human", "conditions": "10^-7 M T3, FIG. 5", "procedure": "as §7, §6"}, "[10]": {"target": "ERval (estrogen receptor Val400) (Homo sapiens, UniProt P03372 P03372:1-595, G400V)", "sequence (P03372 whole entry G400V, one chain of several)": "as the sequence (P03372 whole entry) above, with G400V counted along it", "assay": "EMSA; with E2", "conditions": "tags: rabbit reticulocyte lysate; chain copies: 2; label: 32P"}, "[11]": {"target": "estrogen receptor alpha (ER, wild type, Gly400) (Homo sapiens, UniProt P03372 P03372:1-595)", "sequence (P03372 whole entry, one chain of several)": "as the sequence (P03372 whole entry) above", "assay": "EMSA; strong with and without E2 or Tam; 20 mM Hepes pH 7.9, 50 mM KCl, 2.5 mM MgCl2, poly(dI-dC), 25 C; dissociation not substantially changed by E2 or OH-Tam (FIG.)", "conditions": "tags: rabbit reticulocyte lysate; chain copies: 2; label: 32P"}},
  "note": "Entries after “also recorded” stand apart in the source; their conditions may differ.",
  "data": [
    {"molecule": "C[C@]12CC[C@@H]3c4ccc(O)cc4CC[C@H]3[C@@H]1CC[C@@H]2O", "note": "[E2, estradiol]", "values": [
      {"measurement": "binding of ERval to ERE with E2", "setting": "[1]; 10^-8 M E2, FIG. 2a", "result": "binds strongly to ERE when E2 is included"},
      {"measurement": "increase of affinity of TRα-ERval for DNA (TRE)", "setting": "[2]", "result": "several fold"},
      {"measurement": "binding of ERdel to DNA with and without E2", "setting": "[3]", "result": "binds poorly to DNA in the presence and absence of E2"}
    ]},
    {"molecule": "CC/C(=C(\\c1ccccc1)c1ccc(OCCN(C)C)cc1)c1ccccc1", "note": "[Tam, tamoxifen]", "values": [
      {"measurement": "effect on binding of ERval to the ERE", "setting": "[1]", "result": "drastically increase"}
    ]},
    {"molecule": "4-hydroxytamoxifen [OH-Tam]", "values": [
      {"measurement": "effect on binding of ERval to the ERE", "setting": "[1]", "result": "drastically increase"},
      {"measurement": "effect on activation capacity of ERval", "setting": "[4]; OH-Tam 10^-8 M, no E2, FIG. 3a", "result": "restores the basal gene activation capacity; also recorded: increased by OH-Tam (10^-8 M) to the basal level of ER wild type"},
      {"measurement": "effect on ERval activation capacity in the presence of E2", "setting": "[4]; OH-Tam with E2 10^-8 M, FIG. 3a", "result": "reduced to the wild type basal level"},
      {"measurement": "repression of ER-TRα activity by ERval", "setting": "[5]", "result": "restores the ability of ERval to repress; also recorded: only an efficient repressor of ER-TRα in the presence of OH-Tam"},
      {"measurement": "OH-Tam concentration sufficient to repress E2 action on ER", "setting": "[6]", "result": "nanomolar concentrations"},
      {"measurement": "concentration dependence of the agonist effect on ER", "setting": "[6]", "result": "does not increase with increasing concentrations of ligand"},
      {"measurement": "effect on ER basal level activity", "setting": "[6]", "result": "do not significantly repress"},
      {"measurement": "effect on basal level activity of ER at very low receptor concentrations", "setting": "[6]", "result": "increases the basal level activity"},
      {"measurement": "effect on transcriptional enhancing activity of ER", "setting": "[6]", "result": "maintained at the constitutive basal level"},
      {"measurement": "effect on dissociation of the ER-DNA complex", "setting": "[7]", "result": "no substantial difference"},
      {"measurement": "effect on repression capacity of ER towards ER-TRα", "setting": "[8]", "result": "slightly increases"}
    ]},
    {"molecule": "N[C@@H](Cc1cc(I)c(Oc2ccc(O)c(I)c2)c(I)c1)C(=O)O", "note": "[T3]", "values": [
      {"measurement": "ERE-CAT gene expression by ER-TRα alone", "setting": "[9]", "result": "efficiently enhances"}
    ]},
    {"molecule": "ERE palindrome (dsDNA) DNA 1: TCAGGTCACTGTGACCTGA DNA 2: TCAGGTCACAGTGACCTGA", "values": [
      {"measurement": "binding result", "setting": "[10]", "result": "binds"},
      {"measurement": "binding result", "setting": "[11]", "result": "binds"}
    ]}
  ]
}
